Test results from article PMC6270976, “Pharmacokinetic Study in Mice of Galphimine-A, an Anxiolytic Compound from Galphimia glauca” (Molecules, 2014).
Like-named read-outs stand apart in the source and are kept apart here.

How the values were obtained:
[1] = Brain tissue pharmacokinetics of G–A after a single oral dose in ICR mice (HPLC, PKSolver); assay type: in vivo
Procedure: Eighty-eight mice were randomly divided into 11 groups with eight individuals each. All animals were orally administered with 200 mg/kg of G–A dissolved in 5% β-cyclodextrin solution. Under ether-induced anesthesia, blood samples were obtained from the retroorbital sinus with heparinized cannula at different times (0, 5, 10, 15, 30, 60, 120, 240, 480, 720, and 1,440 min) after G–A administration. The volume of the blood samples was of 700 to 1000 microliters, which were collected in heparinized centrifuge microtubes, after the blood was centrifuged for 5 min at 1,720 × g.
Plasma samples were frozen at −70 °C, and lyophilized after. The obtained dry product was used to extract and measure the amount of G–A. After obtaining blood samples, all animals were perfused with isotonic saline solution (ISS) via cardiac puncture; the femoral vein was used to eliminate the perfusion liquid, until it appeared clear. Subsequently, the brain was removed. The brains were weighed fresh and frozen at −70 °C and then lyophilized. Once dry, the brains were weighed again to determine the volume of water contained in each brain. Dry tissue was ground in a mortar, and G–A was later extracted.
Dry pulverized samples (plasma and brain) were extracted with methanol (HPLC grade, Merck). The extracts were filtered with a 0.45 μm, 13 mm Teflon membrane (Millex®-LCR), and 20 μL of filtrate were injected into the HPLC equipment. Measurements were performed in a Waters 2695 HPLC, with diode array detector (Waters 2996) and the Empower Pro 1.0 software. A Chromolith Performance® RP-18e 100 × 4.6 mm (Merck KGaA Darmstadt, Germany) was used. The mobile phase consisted of a mixture of acetonitrile:water (55:45, 1 mL/min). G–A concentration was obtained by comparison with a pre-built calibration curve at λ = 220 nm.
To evaluate the suitability of the assay for pharmacokinetic studies, 200 mg/kg of G–A was orally administered to mice. Eight animals were used in each group different times (0, 5, 10, 15, 30, 60, 120, 240, 480, 720, and 1440 min). Pharmacokinetic calculations were performed using the observed data. All data were subsequently processed using PKSolver add-in program for Microsoft Excel written in Visual Basic for Applications. […]
The pharmacokinetic model selection either one or two-comparment, were used both the Akaike information criterion (AIC) and Schwarz criterion (SC). Using the criteria, one may select the model with which to reach a lower value of AIC or SC, which means that the chosen model is more parsimonious (less parameters required) and best fits the data (low error prediction).

[2] = Stability of G–A in mouse plasma under handling conditions; assay type: in vitro ADME; details: for Observed Concentration ± S.D.: n = 6
Procedure: (§1) The stability of G–A in mice plasma and brain was assessed by analyzing replicates (n = 6) of QC samples at concentrations of 0.8, 4.0 and 10 μg/mL for mice plasma and brain. The investigation covered expected conditions during all of the sample storage and process periods, which included the stability data from freeze/thaw, bench-top, autosampler and long–term stability test. For all stability studies, freshly prepared and stability testing QC samples were evaluated by using freshly prepared standard curves for the measurement. The concentrations obtained from all stability studies were compared with the freshly prepared QC samples, and the percentage concentration deviation was calculated. The analytes were considered stable in mouse plasma and brain when the concentration difference between the freshly prepared samples and the stability samples was less than 15%.

[3] = Stability of G–A in mouse brain tissue homogenate under handling conditions; assay type: in vitro ADME; details: for Observed Concentration ± S.D.: n = 6
Procedure: as §1

[4] = brain tissue, oral 200 mg/kg, n = 8
[5] = mouse, brain tissue, oral 200 mg/kg, n = 8
[6] = plasma, 3 Freeze/thaw cycles (−70 °C), nominal 0.80 μg/mL
[7] = plasma, 3 Freeze/thaw cycles (−70 °C), nominal 4.00 μg/mL
[8] = plasma, 3 Freeze/thaw cycles (−70 °C), nominal 10.0 μg/mL
[9] = plasma, Autosampler stability (4 °C; 8 h), nominal 0.80 μg/mL
[10] = plasma, Autosampler stability (4 °C; 8 h), nominal 4.00 μg/mL
[11] = plasma, Long–term stability (−70 °C; 1 month), nominal 0.80 μg/mL
[12] = plasma, Long–term stability (−70 °C; 1 month), nominal 4.00 μg/mL
[13] = plasma, Long–term stability (−70 °C; 1 month), nominal 10.0 μg/mL
[14] = brain tissue, 3 Freeze/thaw cycles (−70 °C), nominal 0.80 μg/mL
[15] = brain tissue, 3 Freeze/thaw cycles (−70 °C), nominal 4.00 μg/mL
[16] = brain tissue, 3 Freeze/thaw cycles (−70 °C), nominal 10.0 μg/mL
[17] = brain tissue, Autosampler stability (4 °C; 8 h), nominal 0.80 μg/mL
[18] = brain tissue, Autosampler stability (4 °C; 8 h), nominal 4.00 μg/mL
[19] = brain tissue, Autosampler stability (4 °C; 8 h), nominal 10.0 μg/mL
[20] = brain tissue, Long–term stability (−70 °C; 1 month), nominal 0.80 μg/mL
[21] = brain tissue, Long–term stability (−70 °C; 1 month), nominal 4.00 μg/mL
[22] = brain tissue, Long–term stability (−70 °C; 1 month), nominal 10.0 μg/mL

## COC(=O)[C@@]12CC[C@]3(C)C([C@H](O)[C@H](O)[C@@]4([C@@H](C)O)COC(=O)C=C[C@H]43)[C@@]1(C)CC[C@@]1(C)CC=C(C)C[C@]12O (stereo partly drawn) [G–A, galphimine-A]
[1]; 1440 min (24 h) after single oral 200 mg/kg, mean ± S.E.M., n = 8, 200 mg/kg
  G–A Concentration Brain: 0.32 ± 0.14 µg/mL
[1]; ICR, mouse, brain, po, 200 mg/kg, brain tissue, oral 200 mg/kg, n = 8, read-out: Tmax (converted)
  Tmax: 1.36 h
[1]; [4]
  A: 2.98 µg/mL
  V/F: 68.16 (mg/kg)/(μg/mL)
  k10: 0.0008 min⁻¹
  ka: 0.051 min⁻¹
[1]; brain tissue, oral 200 mg/kg, n = 8, 200 mg/kg
  Tmax: 1.36 h
[1]; [5]
  AUC(0-inf): 58700 ng·h/mL
  CL/F: 57 mL/min/kg
  Cmax: 2740 ng/mL
  MRT: 20.3 h
[1]; mouse, brain tissue, oral 200 mg/kg, n = 8, read-out: AUC0-1440 min (converted)
  AUC(0-t): 31900 ng·h/mL
[1]; mouse, brain, 5 min after single oral 200 mg/kg, mean ± S.E.M., n = 8
  concentration at 5 min: 0 ng/mL
[1]; mouse, brain, 10 min after single oral 200 mg/kg, mean ± S.E.M., n = 8
  concentration at 10 min: 880 ± 330 ng/mL
[1]; mouse, brain, 15 min after single oral 200 mg/kg, mean ± S.E.M., n = 8
  concentration at 15 min: 1480 ± 580 ng/mL
[1]; mouse, brain, 30 min after single oral 200 mg/kg, mean ± S.E.M., n = 8
  concentration at 30 min: 3440 ± 500 ng/mL
[1]; mouse, brain, 60 min after single oral 200 mg/kg, mean ± S.E.M., n = 8
  concentration at 60 min: 3010 ± 590 ng/mL
[1]; mouse, brain, 120 min after single oral 200 mg/kg, mean ± S.E.M., n = 8
  concentration at 120 min: 2500 ± 580 ng/mL
[1]; mouse, brain, 240 min after single oral 200 mg/kg, mean ± S.E.M., n = 8
  concentration at 240 min: 2180 ± 480 ng/mL
[1]; mouse, brain, 480 min after single oral 200 mg/kg, mean ± S.E.M., n = 8
  concentration at 480 min: 1780 ± 370 ng/mL
[1]; mouse, brain, 720 min after single oral 200 mg/kg, mean ± S.E.M., n = 8
  concentration at 720 min: 550 ± 180 ng/mL
[1]; mouse, brain, 1440 min (24 h) after single oral 200 mg/kg, mean ± S.E.M., n = 8
  concentration at 1440 min: 320 ng/mL
[2]; plasma samples, 4 °C
  Time analyzable in the autosampler tray with acceptable precision and accuracy: over 8 h
[2]; plasma samples, −70 °C
  Long-term storage stability (time stable): over 1 month
[2]; [6]
  Accuracy Bias: −1.00%
  Observed Concentration ± S.D.: 0.79 ± 0.08 µg/mL
[2]; [7]
  Accuracy Bias: 0.25%
  Observed Concentration ± S.D.: 4.01 ± 0.14 µg/mL
[2]; [8]
  Accuracy Bias: −0.70%
  Observed Concentration ± S.D.: 9.93 ± 0.67 µg/mL
[2]; [9]
  Accuracy Bias: 3.75%
  Observed Concentration ± S.D.: 0.83 ± 0.05 µg/mL
[2]; [10]
  Accuracy Bias: −1.75%
  Observed Concentration ± S.D.: 3.93 ± 0.43 µg/mL
[2]; plasma, Autosampler stability (4 °C; 8 h), nominal 10.0 μg/mL
  Observed Concentration ± S.D.: 10.10 ± 0.85 µg/mL
[2]; [11]
  Accuracy Bias: −3.00%
  Observed Concentration ± S.D.: 0.77 ± 0.06 µg/mL
[2]; [12]
  Accuracy Bias: 6.50%
  Observed Concentration ± S.D.: 4.26 ± 0.31 µg/mL
[2]; [13]
  Accuracy Bias: −5.70%
  Observed Concentration ± S.D.: 9.43 ± 0.83 µg/mL
[2]; plasma, three cycles, stored at −70 °C and thawed to room temperature
  Freeze/thaw stability: stable
[3]; brain tissue samples, 4 °C
  Time analyzable in the autosampler tray with acceptable precision and accuracy: over 8 h
[3]; brain tissue samples, −70 °C
  Long-term storage stability (time stable): over 1 month
[3]; [14]
  Accuracy Bias: 3.75%
  Observed Concentration ± S.D.: 0.83 ± 0.08 µg/mL
[3]; [15]
  Accuracy Bias: 9.00%
  Observed Concentration ± S.D.: 4.36 ± 0.34 µg/mL
[3]; [16]
  Accuracy Bias: 3.60%
  Observed Concentration ± S.D.: 10.36 ± 0.52 µg/mL
[3]; [17]
  Accuracy Bias: 8.75%
  Observed Concentration ± S.D.: 0.87 ± 0.11 µg/mL
[3]; [18]
  Accuracy Bias: −10.0%
  Observed Concentration ± S.D.: 3.60 ± 0.33 µg/mL
[3]; [19]
  Accuracy Bias: −1.70%
  Observed Concentration ± S.D.: 9.83 ± 0.43 µg/mL
[3]; [20]
  Accuracy Bias: −10.00%
  Observed Concentration ± S.D.: 0.72 ± 0.10 µg/mL
[3]; [21]
  Accuracy Bias: −6.75%
  Observed Concentration ± S.D.: 3.73 ± 0.41 µg/mL
[3]; [22]
  Accuracy Bias: 4.30%
  Observed Concentration ± S.D.: 10.43 ± 0.98 µg/mL
[3]; brain tissue, three cycles, stored at −70 °C and thawed to room temperature
  Freeze/thaw stability: stable
